Laboratory results from PubChem BioAssay (NCI).
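Tested at 5 concentrations; 48 h exposure; 96-well plates; endpoints linearly interpolated, else capped at highest concentration. Abbreviation: GI50, concentration required for 50% inhibition of growth. At the TGI there is no net growth.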

Key:
Assay in all cases: inhibition of tumour cell growth, NCI panel, 48 h
786-0 renal = tested on: 786-0 renal
A498 renal = tested on: A498 renal
A549 NSCLC = tested on: A549 NSCLC
ACHN renal = tested on: ACHN renal
BT-549 breast = tested on: BT-549 breast
CAKI-1 renal = tested on: CAKI-1 renal
CCRF-CEM leukemia = tested on: CCRF-CEM leukemia
COLO 205 colon = tested on: COLO 205 colon
DU-145 prostate = tested on: DU-145 prostate
EKVX NSCLC = tested on: EKVX NSCLC
HCC-2998 colon = tested on: HCC-2998 colon
HCT-116 colon = tested on: HCT-116 colon
HCT-15 colon = tested on: HCT-15 colon
HL-60(TB) leukemia = tested on: HL-60(TB) leukemia
HOP-62 NSCLC = tested on: HOP-62 NSCLC
HOP-92 NSCLC = tested on: HOP-92 NSCLC
HS 578T breast = tested on: HS 578T breast
HT29 colon = tested on: HT29 colon
IGROV1 ovarian = tested on: IGROV1 ovarian
K-562 leukemia = tested on: K-562 leukemia
KM12 colon = tested on: KM12 colon
LOX IMVI melanoma = tested on: LOX IMVI melanoma
M14 melanoma = tested on: M14 melanoma
MALME-3M melanoma = tested on: MALME-3M melanoma
MCF7 breast = tested on: MCF7 breast
MDA-MB-231 breast = tested on: MDA-MB-231 breast
MDA-MB-435 = tested on: MDA-MB-435
MOLT-4 leukemia = tested on: MOLT-4 leukemia
NCI-H226 lung = tested on: NCI-H226 lung
NCI-H23 lung = tested on: NCI-H23 lung
NCI-H460 lung = tested on: NCI-H460 lung
NCI-H522 lung = tested on: NCI-H522 lung
NCI/ADR-RES ovarian = tested on: NCI/ADR-RES ovarian
OVCAR-3 ovarian = tested on: OVCAR-3 ovarian
OVCAR-4 ovarian = tested on: OVCAR-4 ovarian
OVCAR-5 ovarian = tested on: OVCAR-5 ovarian
OVCAR-8 ovarian = tested on: OVCAR-8 ovarian
PC-3 prostate = tested on: PC-3 prostate
RPMI-8226 leukemia = tested on: RPMI-8226 leukemia
RXF 393 renal = tested on: RXF 393 renal
SF-268 CNS = tested on: SF-268 CNS
SF-539 CNS = tested on: SF-539 CNS
SK-MEL-2 melanoma = tested on: SK-MEL-2 melanoma
SK-MEL-28 melanoma = tested on: SK-MEL-28 melanoma
SK-MEL-5 melanoma = tested on: SK-MEL-5 melanoma
SK-OV-3 ovarian = tested on: SK-OV-3 ovarian
SN12C renal = tested on: SN12C renal
SNB-19 CNS = tested on: SNB-19 CNS
SNB-75 CNS = tested on: SNB-75 CNS
SR leukemia = tested on: SR leukemia
SW-620 colon = tested on: SW-620 colon
TK-10 renal = tested on: TK-10 renal
U251 CNS = tested on: U251 CNS
UACC-257 melanoma = tested on: UACC-257 melanoma
UACC-62 melanoma = tested on: UACC-62 melanoma
UO-31 renal = tested on: UO-31 renal

## O=C(/C=C/C12c3ccccc3C(c3ccccc31)C1C(=O)NC(=O)C12)c1ccccc1 (configuration not stated)
786-0 renal
  GI50: 1700 nM
  TGI: 3100 nM
A498 renal
  GI50: 1420 nM
  TGI: 2820 nM
A549 NSCLC
  GI50: 2650 nM
  TGI: 11800 nM
ACHN renal
  GI50: 1750 nM
  TGI: 3590 nM
BT-549 breast
  GI50: 1400 nM
  TGI: 2840 nM
CAKI-1 renal
  GI50: 1490 nM
  TGI: 3680 nM
CCRF-CEM leukemia
  GI50: 2170 nM
  TGI: 12500 nM
COLO 205 colon
  GI50: 2050 nM
  TGI: 4030 nM
DU-145 prostate
  GI50: 1640 nM
  TGI: 3510 nM
EKVX NSCLC
  GI50: 1750 nM
  TGI: 4390 nM
HCC-2998 colon
  GI50: 1700 nM
  TGI: 3270 nM
HCT-116 colon
  GI50: 1350 nM
  TGI: 2890 nM
HCT-15 colon
  GI50: 1640 nM
  TGI: 6840 nM
HL-60(TB) leukemia
  GI50: 1500 nM
  TGI: 5970 nM
HOP-62 NSCLC
  GI50: 2170 nM
  TGI: 4380 nM
HOP-92 NSCLC
  GI50: 1410 nM
  TGI: 3520 nM
HS 578T breast
  GI50: 2190 nM
  TGI: 7680 nM
HT29 colon
  GI50: 3250 nM
  TGI: 11900 nM
IGROV1 ovarian
  GI50: 2030 nM
  TGI: 4520 nM
K-562 leukemia
  GI50: 1940 nM
  TGI: > 100000 nM
KM12 colon
  GI50: 2720 nM
  TGI: 11000 nM
LOX IMVI melanoma
  GI50: 1630 nM
  TGI: 3120 nM
M14 melanoma
  GI50: 1780 nM
  TGI: 3680 nM
MALME-3M melanoma
  GI50: 1640 nM
  TGI: 3150 nM
MCF7 breast
  GI50: 1450 nM
  TGI: 7600 nM
MDA-MB-231 breast
  GI50: 2960 nM
  TGI: 13100 nM
MDA-MB-435
  GI50: 2160 nM
  TGI: 5900 nM
MOLT-4 leukemia
  GI50: 2170 nM
  TGI: 11600 nM
NCI-H226 lung
  GI50: 2280 nM
  TGI: 6510 nM
NCI-H23 lung
  GI50: 1790 nM
  TGI: 4010 nM
NCI-H460 lung
  GI50: 1680 nM
  TGI: 4650 nM
NCI-H522 lung
  GI50: 1800 nM
  TGI: 3690 nM
NCI/ADR-RES ovarian
  GI50: 1920 nM
  TGI: 5730 nM
OVCAR-3 ovarian
  GI50: 1650 nM
  TGI: 3370 nM
OVCAR-4 ovarian
  GI50: 2300 nM
  TGI: 12100 nM
OVCAR-5 ovarian
  GI50: 2010 nM
  TGI: 4830 nM
OVCAR-8 ovarian
  GI50: 1720 nM
  TGI: 5100 nM
PC-3 prostate
  GI50: 1620 nM
  TGI: 3450 nM
RPMI-8226 leukemia
  GI50: 1510 nM
  TGI: 4100 nM
RXF 393 renal
  GI50: 1500 nM
  TGI: 2940 nM
SF-268 CNS
  GI50: 2170 nM
  TGI: 6550 nM
SF-539 CNS
  GI50: 1630 nM
  TGI: 3020 nM
SK-MEL-2 melanoma
  GI50: 2350 nM
  TGI: 4620 nM
SK-MEL-28 melanoma
  GI50: 1880 nM
  TGI: 3630 nM
SK-MEL-5 melanoma
  GI50: 1720 nM
  TGI: 3100 nM
SK-OV-3 ovarian
  GI50: 2370 nM
  TGI: 5200 nM
SN12C renal
  GI50: 2290 nM
  TGI: 6910 nM
SNB-19 CNS
  GI50: 1660 nM
  TGI: 3340 nM
SNB-75 CNS
  GI50: 1200 nM
  TGI: 2550 nM
SR leukemia
  GI50: 1570 nM
  TGI: 17600 nM
SW-620 colon
  GI50: 1920 nM
  TGI: 4930 nM
TK-10 renal
  GI50: 2790 nM
  TGI: 6340 nM
U251 CNS
  GI50: 1550 nM
  TGI: 2960 nM
UACC-257 melanoma
  GI50: 1610 nM
  TGI: 3480 nM
UACC-62 melanoma
  GI50: 1770 nM
  TGI: 3820 nM
UO-31 renal
  GI50: 1530 nM
  TGI: 2880 nM
